In US20040087571A1, “Methods of using CCR1 antagonists as immunomodulatory agents” (Pfizer Inc, priority 2002, published 2004):

| SMILES | melting point [°C] |
| --- | --- |
| CC(C)(F)CC[C@H](C[C@H](O)[C@H](Cc1ccccc1)NC(=O)c1cnc2ccccc2n1)C(=O)NCCc1cccs1 [Example 229, Quinoxaline-2-carboxylic acid [1(S)-benzyl-7-fluoro-2(S)-hydroxy-7-methyl-4(R)-(2-thiophen-2-yl-ethylcarbamoyl)-octyl]-amide] | 152 to 154 |
| CNC(=O)[C@H](CC1CCCCC1)C[C@H](O)[C@H](CC1CCCCC1)NC(=O)c1cc2ccccc2cn1 [Example 59, Isoquinoline-3-carboxylic acid (5-cyclohexyl-1(S)-cyclohexylmethyl-2(S)-hydroxy-4(R)-methylcarbamoyl-pentyl)-amide] | 205 to 207 |
| CC(C)(F)CC[C@H](C[C@H](O)[C@H](Cc1ccccc1)NC(=O)c1cnc2ccccc2n1)C(=O)NCCc1ccc(S(N)(=O)=O)cc1 [Example 216, Quinoxaline-2-carboxylic acid {1(S)-benzyl-7-fluoro-2(S)-hydroxy-7-methyl-4(R)-[2-(4-sulfamoyl-phenyl)-ethylcarbamoyl]-octyl}-amide] | 207 to 210 |
| CC1(C)CCC(O)([C@H](C[C@H](O)[C@H](Cc2ccccc2)NC(=O)c2cnc3ccccc3n2)C(=O)NO)CC1 [Example 305, Quinoxaline-2-carboxylic acid [1(S)-benzyl-2(S)-hydroxy-4(S)-hydroxycarbamoyl-4-(1-hydroxy-4,4-dimethyl-cyclohexyl)-butyl]-amide] | 118 to 123 |
| CC1CCC(O)([C@H](C[C@H](O)[C@H](Cc2ccccc2)NC(=O)c2cnc3ccccc3n2)C(N)=O)C1 (stereo partly drawn) [Example 282, Quinoxaline-2-carboxylic acid [1(S)-benzyl-4(S)-carbamoyl-2(S)-hydroxy-4-(1-hydroxy-3-methyl-cyclopentyl)-butyl]-amide] | 187 to 188 |
| CC1CCC(O)([C@H](C[C@H](O)[C@H](Cc2ccccc2)NC(=O)c2cnc3ccccc3n2)C(=O)NO)CC1 (stereo partly drawn) [Example 283, Quinoxaline-2-carboxylic acid [1(S)-benzyl-2(S)-hydroxy-4(S)-hydroxycarbamoyl-4-(1-hydroxy-4-methyl-cyclohexyl)-butyl]-amide] | 114 to 116 |
| COc1ccccc1CNC(=O)[C@H](CCC(C)(C)F)C[C@H](O)[C@H](Cc1ccccc1)NC(=O)c1cnc2ccccc2n1 [Example 227, Quinoxaline-2-carboxylic acid [1(S)-benzyl-7-fluoro-2(S)-hydroxy-4(R)-(2-methoxy-benzylcarbamoyl)-7-methyl-octyl]-amide] | 135 |
| O=C(N[C@@H](Cc1ccccc1)[C@@H](O)C[C@H](C(=O)NO)C1(O)CCCC1)c1cnc2ccccc2n1 [Example 281, Quinoxaline-2-carboxylic acid [1(S)-benzyl-2(S)-hydroxy-4(S)-hydroxycarbamoyl-4-(1-hydroxy-cyclopentyl)-butyl]-amide] | 110 to 112 |
| CC(C)(O)CC[C@H](C[C@H](O)[C@H](Cc1ccccc1F)NC(=O)c1cnc2ccccc2n1)C(=O)NO [Example 320, Quinoxaline-2-carboxylic acid [1(S)-(2-fluoro-benzyl)-2(S),7-dihydroxy-4(R)-hydroxycarbamoyl-7-methyl-octyl]-amide] | 130 to 131 |
| CNC(=O)[C@H](CC1CCCCC1)C[C@H](O)[C@H](CC1CCCCC1)NC(=O)c1cncc2ccccc12 [Example 62, Isoquinoline-4-carboxylic acid (5-cyclohexyl-1(S)-cyclohexylmethyl-2(S)-hydroxy-4(R)-methylcarbamoyl-pentyl)-amide] | 220.5 to 224 |
| CC1CCC(O)([C@H](C[C@H](O)[C@H](Cc2ccccc2)NC(=O)c2cnc3ccccc3n2)C(N)=O)CC1 (stereo partly drawn) [Example 278, Quinoxaline-2-carboxylic acid [1(S)-benzyl-4(S)-carbamoyl-2(S)-hydroxy-4-(1-hydroxy-4-methyl-cyclohexyl)-butyl]-amide] | 230 to 233 |
| CNC(=O)[C@H](CCC(C)C)C[C@H](O)[C@H](Cc1cccc(F)c1)NC(=O)c1cnc2ccccc2n1 [Example 134, Quinoxaline-2-carboxylic acid [1(S)-(3-fluoro-benzyl)-2(S)-hydroxy-7-methyl-4(R)-methylcarbamoyl-octyl]-amide] | 158.5 to 159.5 |
| NC(=O)[C@H](Cc1ccccc1)C[C@H](O)[C@H](Cc1ccccc1)NC(=O)c1cnc2ccccc2c1 [Example 287, Quinoline-3-carboxylic acid (1(S)-benzyl-4(R)-carbamoyl-2(S)-hydroxy-5-phenyl-pentyl)-amide] | 203 to 206 |
| NC(=O)[C@@H](C[C@H](O)[C@H](Cc1ccccc1)NC(=O)c1cnc2ccccc2n1)C1(O)CCCC1 [Example 277, Quinoxaline-2-carboxylic acid [1(S)-benzyl-4(S)-carbamoyl-2(S)-hydroxy-4-(1-hydroxy-cyclopentyl)-butyl]-amide] | 192 to 195 |
| CNC(=O)[C@H](CC(C)C)C[C@H](O)[C@H](Cc1ccc(OCc2ccccc2)cc1)NC(=O)c1cnc2ccccc2c1 [Example 40, Quinoline-3-carboxylic acid [1(S)-(4-benzyloxy-benzyl)-2(S)-hydroxy-6-methyl-4(R)-methylcarbamoyl-heptyl]-amide] | 178 to 179 |
| CC(C)(F)CC[C@H](C[C@H](O)[C@H](Cc1ccccc1)NC(=O)c1cnc2ccccc2n1)C(=O)NCc1cccs1 [Example 213, Quinoxaline-2-carboxylic acid {1(S)-benzyl-7-fluoro-2(S)-hydroxy-7-methyl-4(R)-[(thiophen-2-ylmethyl)-carbamoyl]-octyl}-amide] | 174 to 175 |
| COc1ccc(CNC(=O)[C@H](CCC(C)(C)F)C[C@H](O)[C@H](Cc2ccccc2)NC(=O)c2cnc3ccccc3n2)cc1OC [Example 206, Quinoxaline-2-carboxylic acid [1(S)-benzyl-4(R)-(3,4-dimethoxy-benzylcarbamoyl)-7-fluoro-2(S)-hydroxy-7-methyl-octyl]-amide] | 162 to 164 |
| CNC(=O)[C@H](CC(C)C)C[C@H](O)[C@H](Cc1ccc(Cl)cc1)NC(=O)c1cnc2ccccc2c1 [Example 67, Quinoline-3-carboxylic acid [1(S)-(4-chloro-benzyl)-2(S)-hydroxy-6-methyl-4(R)-methylcarbamoyl-heptyl]-amide] | 212.5 to 213.5 |
| CCSCCNC(=O)[C@H](CCC(C)(C)F)C[C@H](O)[C@H](Cc1ccccc1)NC(=O)c1cnc2ccccc2n1 [Example 218, Quinoxaline-2-carboxylic acid [1(S)-benzyl-4(R)-(2-ethylsulfanyl-ethylcarbamoyl)-7-fluoro-2(S)-hydroxy-7-methyl-octyl]-amide] | 78 to 79 |
| CNC(=O)[C@H](CC(C)C)C[C@H](O)[C@H](CC1CCC(F)(F)CC1)NC(=O)c1cnc2ccccc2n1 [Example 108, Quinoxaline-2-carboxylic acid [1(S)-(4,4-difluoro-cyclohexylmethyl)-2(S)-hydroxy-6-methyl-4(R)-methylcarbamoyl-heptyl]-amide] | 95 to 98 |
| O=C(N[C@@H](Cc1ccccc1)[C@@H](O)C[C@H](C(=O)NO)C1(O)C2CCCC1CCC2)c1cnc2ccccc2n1 (stereo partly drawn) [Example 298, Quinoxaline-2-carboxylic acid [1(S)-benzyl-2(S)-hydroxy-4(S)-(9-hydroxy-bicyclo[3.3.1]non-9-yl)-4-hydroxycarbamoyl-butyl]-amide] | 130 to 132 |
| CNC(=O)[C@H](CC(C)C)C[C@H](O)[C@H](Cc1ccc(OCc2ccccc2)cc1)NC(=O)c1cnc2ccccc2n1 [Example 39, Quinoxaline-2-carboxylic acid [1(S)-(4-benzyloxy-benzyl)-2(S)-hydroxy-6-methyl-4(R)-methylcarbamoyl-heptyl]-amide] | 196 to 197 |
| CNC(=O)[C@H](CC(C)C)C[C@H](O)[C@H](CC(C)C)NC(=O)c1cnc2ccccc2c1 [Example 10, Quinoline-3-carboxylic acid (2(S)-hydroxy-1(S)-isobutyl-6-methyl-4(R)-methylcarbamoyl-heptyl)-amide] | 155 to 157 |
| CNC(=O)[C@H](CC(C)C)C[C@H](O)[C@H](Cc1ccc(O)cc1)NC(=O)c1cnc2ccccc2n1 [Example 65, Quinoxaline-2-carboxylic acid [2(S)-hydroxy-1(S)-(4-hydroxy-benzyl)-6-methyl-4(R)-methylcarbamoyl-heptyl]-amide] | 170 to 172 |
| CC1CC([C@H](C[C@H](O)[C@H](Cc2ccccc2)NC(=O)c2cnc3ccccc3n2)C(N)=O)CC(C)O1 (stereo partly drawn) [Example 244, Quinoxaline-2-carboxylic acid [1(S)-benzyl-4(S)-carbamoyl-4-(2,6-dimethyl-tetrahydro-pyran-4-yl)-2(S)-hydroxy-butyl]-amide] | 195 to 198 |
| NC(=O)[C@H](Cc1ccccc1Cl)C[C@H](O)[C@H](Cc1ccccc1)NC(=O)c1cnc2ccccc2n1 [Example 274, Quinoxaline-2-carboxylic acid [1(S)-benzyl-4(R)-carbamoyl-5-(2-chloro-phenyl)-2(S)-hydroxy-pentyl]-amide] | 182 to 185 |
| COc1cccc(C[C@H](C[C@H](O)[C@H](Cc2ccccc2)NC(=O)c2cnc3ccccc3n2)C(N)=O)c1 [Example 299, Quinoxaline-2-carboxylic acid [1(S)-benzyl-4(R)-carbamoyl-2(S)-hydroxy-5-(3-methoxy-phenyl)-pentyl]-amide] | 147 to 148 |
| CC(C)(F)CC[C@H](C[C@H](O)[C@H](Cc1ccccc1)NC(=O)c1cnc2ccccc2n1)C(=O)NCC1CCCO1 (stereo partly drawn) [Example 240, Quinoxaline-2-carboxylic acid {1(S)-benzyl-7-fluoro-2(S)-hydroxy-7-methyl-4(R)-[(tetrahydrofuran-2-ylmethyl)-carbamoyl]-octyl}-amide] | 111 to 115 |
| CNC(=O)[C@H](CC1CCC(F)(F)CC1)C[C@H](O)[C@H](Cc1ccccc1)NC(=O)c1cnc2ccccc2n1 [Example 132, Quinoxaline-2-carboxylic acid [1(S)-benzyl-5-(4,4-difluoro-cyclohexyl)-2(S)-hydroxy-4(R)-methylcarbamoyl-pentyl]-amide] | 170 to 172 |
